The source of these data is US20070185060A1, “Boronic acid thrombin inhibitors” (TRIGEN LIMITED, priority 2004, published 2007).

One data set addresses thrombin (Homo sapiens, UniProt P00734). Nature of the data set: Thrombin inhibition, chromogenic substrate (Method A). The format is biochemical. The protocol: 50 μl thrombin (33.3 ng/ml in assay buffer) and 20 μl vehicle or compound solution were added to 110 μl assay buffer (100 mM Na orthophosphate (80% Na2HPO4 and 20% NaH2PO4), 200 mM NaCl, 0.5% PEG 6000, 0.02% Na azide, pH 7.5) and incubated for 5 minutes at 37° C.

In a further data set the target is Plasmin (Homo sapiens, UniProt P00747). Kind of data set: Plasmin inhibition, chromogenic substrate (Method B). The format is biochemical. The protocol:
50 μl Plasmin (75 ng/ml in assay buffer) and 20 μl vehicle or compound solution were added to 110 μl assay buffer (100 mM Na orthophosphate (80% Na2HPO4 and 20% NaH2PO4), 200 mM NaCl, 0.5% PEG 6000, 0.02% Na azide, pH 7.5) and incubated for 5 minutes at 37° C.

The subject of data set [1] is Trypsin. Kind of data set: Trypsin inhibition, chromogenic substrate (Method C). It counts as biochemical. The following applies: Trypsin versus thrombin. As to the method: (§1) 50 μl Trypsin (20 ng/ml in assay buffer) and 20 μl vehicle or compound solution were added to 110 μl assay buffer (100 mM Na orthophosphate (80% Na2HPO4 and 20% NaH2PO4), 200 mM NaCl, 0.5% PEG 6000, 0.02% Na azide, pH 7.5) and incubated for 5 minutes at 37° C.

For data set [2], the system named is T1, Trypsin.
T1 construct: IC50; other: Trypsin; Ki
The data set is described as above. It counts as biochemical. The following applies: Trypsin. The protocol: as §1

Data set [3] is described as follows: Stability under conditions of HPLC purity determination. It counts as physicochemical. The conditions noted are these: sample preparation for HPLC.
Data set [4] is described as follows: Solubility of TRI 50c monosodium salt at different pH values. The format is physicochemical. As to the method:
It may be desirable to make aqueous solutions of boronic acid drugs for administering them. […] However, a solution with a pH of 9.5 may be unacceptable or undesirable. Accordingly, a pharmaceutically acceptable organic acid may be included in the particulate formulation in an amount selected to reduce the pH to a value at which the solution is more acceptable but at which a solution of drinkable quantity (e.g. about 50 ml to about 150 ml) may be formed by reconstituting the particulate formulation. As the organic acid may be mentioned citric acid, tartaric acid or malic acid, for example. In many instances, citric acid is chosen.
In a first series of experiments, this amount of the salt was dissolved in 50 ml water to form a solution of approximately pH 9.5. Dilute aqueous HCl was added to determine how much the pH could be reduced before precipitation occurred.
In a second series of experiments, the same amount of the salt was dissolved in 150 ml water, and citric acid was added. […] Since acid solutions tend to be more palatable than alkaline ones, and citric acid is a common flavouring agent, this behaviour of the salt is highly beneficial. […] In general, it is contemplated that the boronate will be formulated to form a reconstituted solution having a pH of from 4 to 8, e.g. 4 to 7, optionally 5 to 6.

Bounds are passed on as bounds.

What is called IC50 is the concentration that gives 50% inhibition. Read a low IC50 as inhibition by little substance. In general, Ki refers to the equilibrium dissociation constant of an inhibitor or competing ligand from its target.

Plasmin, sequence (P00747 581-810 limits assumed, species assumed): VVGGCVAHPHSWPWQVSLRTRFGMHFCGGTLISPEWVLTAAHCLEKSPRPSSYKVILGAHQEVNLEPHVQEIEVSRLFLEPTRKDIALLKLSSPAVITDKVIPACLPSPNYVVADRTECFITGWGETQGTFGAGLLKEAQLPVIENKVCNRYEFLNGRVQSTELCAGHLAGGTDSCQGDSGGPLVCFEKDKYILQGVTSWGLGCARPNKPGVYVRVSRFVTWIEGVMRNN
Plasmin, sequence (P00747 97-580 partner limits assumed, species assumed): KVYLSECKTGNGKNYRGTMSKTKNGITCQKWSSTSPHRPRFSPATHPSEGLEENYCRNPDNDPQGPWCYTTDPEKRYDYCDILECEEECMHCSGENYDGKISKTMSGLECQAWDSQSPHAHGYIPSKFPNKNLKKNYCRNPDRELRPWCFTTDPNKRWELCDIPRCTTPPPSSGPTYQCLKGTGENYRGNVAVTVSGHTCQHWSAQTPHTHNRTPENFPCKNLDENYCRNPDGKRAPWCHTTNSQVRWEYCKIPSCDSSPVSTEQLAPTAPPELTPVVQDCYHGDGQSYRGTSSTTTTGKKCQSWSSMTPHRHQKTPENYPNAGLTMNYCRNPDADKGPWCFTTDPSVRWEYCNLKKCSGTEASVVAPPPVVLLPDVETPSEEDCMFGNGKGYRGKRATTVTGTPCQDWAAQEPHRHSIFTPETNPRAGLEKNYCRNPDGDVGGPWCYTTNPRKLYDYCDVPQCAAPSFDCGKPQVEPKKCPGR

As for `COCCC[C@H](NC(=O)[C@@H]1CCCN1C(=O)[C@@H](Cc1ccc(F)cc1)NC(=O)OCc1ccccc1)B(O)O` [TRI 50f, Cbz-4-F-Phe-Pro-boroMpg-OH], the results for the IC50 against thrombin, on Plasmin (Plasmin) and in the data set with Trypsin [2] were below 0.1 µM, above 100 µM and above 10 µM, respectively. For the same compound, the Ki was below 0.075 µM on thrombin, above 100 µM at Plasmin (Plasmin) and above 5 µM at Trypsin [2]. Further, the Selectivity at Plasmin (Plasmin versus thrombin) is above 1000; in the data set with Trypsin [1], above 100.

Regarding `COCCCC(NC(=O)C1CCCN1C(=O)C(Cc1ccccc1)NC(=O)OCc1ccccc1)B1OCCNCCO1` (stereo not drawn) [TRI 50d], the “stability under HPLC purity determination conditions” value in data set [3] was “not stable”.

Consider `COCCC[C@H](NC(=O)[C@@H]1CCCN1C(=O)[C@@H](Cc1ccccc1)NC(=O)OCc1ccccc1)B(O)O.[Na+]` [TRI 50c monosodium salt, Cbz-(R)-Phe-(S)-Pro-(R)-Mpg-B(OH)2 monosodium salt], for which the “concentration of boronate salt solution that can be formed” value in data set [4] (aqueous solution at a pH of about 9.5) is on record as “about 600 mg/ml”. The “pH below which the salt tended to precipitate” value in data set [4] (salt equivalent to 600 mg TRI 50c in 50 ml water, dilute aqueous HCl added) is “below 9”. For the same compound, the “pH to which solution could be reduced before precipitation occurred” value in data set [4] (salt equivalent to 600 mg TRI 50c in 150 ml water, citric acid added) is given as 3.7-3.8.
